The record followed here is ChEMBL document CHEMBL1201862, “PubChem BioAssay data set” (2004).

Common to all, as to test: inhibition of tumour cell growth, NCI panel, 48 h
Experiment [1] deals with MOLT-4.
For experiment [2], the system named is A498.
Experiment [3] relates to RPMI-8226.
Experiment [4] deals with SK-MEL-2.
Experiment [5] deals with A549.
In experiment [6] the test system is 786-0.
Experiment [7] deals with LOX IMVI.
Experiment [8] deals with CAKI-1.
Experiment [9] relates to HT-29.
For experiment [10], the system named is HL-60.
Experiment [11] deals with HOP-92.
Experiment [12] concerns TK-10.
In experiment [13] the test system is SF-295.
For experiment [14], the system named is M14.
Experiment [15] relates to NCI-H226.
Experiment [16] concerns OVCAR-4.
In experiment [17] the test system is DMS-273.
Experiment [18] relates to MDA-MB-435.
Experiment [19] has as its system Hs-578T.
Experiment [20] deals with MDA-MB-231.

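The compound was tested at five concentrations on cells cultured in 96-well plates, with a 48-hour exposure period. GI50 = concentration required for 50% inhibition of growth.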 Active and inactive are the calls of the source. Rule as the data show it: active = GI50 up to about 1.1 µM and inactive = higher.

Turning to `CCOC(=O)C(=O)C1C(=O)Nc2ccccc21` (stereo not drawn), the GI50 in experiment [1], in [2], in [3], in experiment [4], in experiment [5] and in experiment [6] was > 100 µM (inactive) in each case. The GI50 in experiment [7] was > 100 µM (inactive); in experiment [8], > 100 µM (inactive); in experiment [9], > 100 µM (inactive); in experiment [10], > 100 µM (inactive); in experiment [11] it was 50.8 µM (inactive); in experiment [12], > 100 µM (inactive). Besides, the GI50 in experiment [13], in experiment [14], in experiment [15], in experiment [16] and in experiment [17] was > 100 µM (inactive) each time.

`COc1ccc(CC2NCCc3cc(OC)c(OC)cc32)cc1Br` (stereo not drawn): the GI50 in experiment [1] was 20.7 µM (inactive); in [2] it was 30.1 µM (inactive); in experiment [3], 18.5 µM (inactive); in experiment [18], 25.1 µM (inactive); in [19] it was 19.2 µM (inactive); in experiment [20], 22 µM (inactive). Also, the GI50 was 27.2 µM (inactive) in [4]; 56 µM (inactive) in [5]; 39.4 µM (inactive) in experiment [6]; 19.1 µM (inactive) in [7]; 19.7 µM (inactive) in experiment [8]; 19.1 µM (inactive) in experiment [9]. Moreover, the GI50 in experiment [10] was 14 µM (inactive); in experiment [11] it was 15.1 µM (inactive); in experiment [12], 25.6 µM (inactive); in experiment [13], 21 µM (inactive); in experiment [14], 16.8 µM (inactive); in experiment [15], 18.6 µM (inactive). For the same compound, the GI50 in experiment [16] was 38 µM (inactive); in experiment [17], 22.4 µM (inactive).

With `Nc1nc(F)nc2c1ncn2C1OC(COP(=O)(O)O)C(O)C1O` (stereo not drawn), the GI50 is 4.38 µM (inactive) in [1]; 146 µM (inactive) in experiment [2]; 80.4 µM (inactive) in experiment [3]; 11.9 µM (inactive) in experiment [18]; 81.5 µM (inactive) in [19]; 80.2 µM (inactive) in experiment [20]. In addition, the GI50 in experiment [4] was 31.4 µM (inactive); in experiment [5], 40.7 µM (inactive); in experiment [6], 39.5 µM (inactive); in experiment [7], 53.8 µM (inactive); in experiment [8], 8.17 µM (inactive); in [9], 310 µM (inactive). For the same compound, the GI50 in [10] was 5.4 µM (inactive); in experiment [11], 7.38 µM (inactive); in experiment [12] it was 128 µM (inactive); in experiment [13], 309 µM (inactive); in experiment [14] it was 6.4 µM (inactive); in experiment [15] it was 98.2 µM (inactive). Besides, the GI50 in experiment [16] is 212 µM (inactive); in experiment [17] it was 225 µM (inactive).

For the compound `COc1cc2c(c(OC)c1OC)-c1ccc(SC)c(=O)cc1C(CO)C2` (stereo not drawn), the GI50 in experiment [1] was 0.596 µM (active); in experiment [2], 0.107 µM (active); in experiment [3], < 0.01 µM (active); in experiment [4], 0.209 µM (active); in experiment [5] it was 0.22 µM (active); in experiment [6], 0.355 µM (active). The GI50 in experiment [7] is 0.22 µM (active); in experiment [8], 0.634 µM (active); in experiment [9], 0.134 µM (active); in [10], 0.0682 µM (active); in [11] it was 0.451 µM (active); in experiment [13], 0.175 µM (active). The GI50 in experiment [14] was 0.103 µM (active); in [15], 0.279 µM (active); in experiment [16], 0.769 µM (active); in experiment [17] it was 0.0614 µM (active).

For the compound `CN(C)[C@H]1CC[C@H]2[C@@H]3CCC4C[C@@H](NC(=O)NC(Cc5ccccc5)c5nccs5)CC[C@]4(C)[C@H]3CC[C@]12C` (stereo partly drawn), the GI50 in [1] is 0.566 µM (active); in experiment [2], 1.69 µM (inactive); in experiment [3] it was 0.792 µM (active); in experiment [18], 0.51 µM (active); in experiment [19] it was 2.19 µM (inactive); in experiment [20], 0.377 µM (active). The GI50 in experiment [4] was 1.1 µM (active); in experiment [5], 1.58 µM (inactive); in [6] it was 0.512 µM (active); in [7], 1.66 µM (inactive); in experiment [8], 1.7 µM (inactive); in [9], 0.33 µM (active). In addition, the GI50 in experiment [10] was 0.218 µM (active); in experiment [11], 1.53 µM (inactive); in experiment [12], 2.04 µM (inactive); in experiment [13], 0.757 µM (active); in experiment [14], 1.69 µM (inactive); in experiment [15] it was 2.09 µM (inactive). Further, the GI50 was 1.72 µM (inactive) in [16] and 1.94 µM (inactive) in experiment [17].

Turning to `CCCCCC1CC=CC(NC(=O)OCc2ccccc2)C1/C=C/CCCC1OCCO1` (stereo not drawn), the GI50 was 12.5 µM (inactive) in experiment [1]; 17.7 µM (inactive) in [2]; 17.9 µM (inactive) in [3]; 35.2 µM (inactive) in [4]; 23.3 µM (inactive) in experiment [5]; > 100 µM (inactive) in [6]. Moreover, the GI50 is 57.7 µM (inactive) in experiment [7]; 23.5 µM (inactive) in experiment [8]; > 100 µM (inactive) in experiment [9]; 7.93 µM (inactive) in [10]; > 45.7 µM (inactive) in experiment [11]; 97.7 µM (inactive) in [12]. Also, the GI50 in experiment [13] was 66.5 µM (inactive); in [14], > 100 µM (inactive); in [15], 30.9 µM (inactive); in [16] it was > 72.9 µM (inactive); in [17] it was 36.2 µM (inactive).

As for `O=CC(O)C(O)C(O)COc1cc(CO)cc2c1C(=O)c1ccccc1C2=O` (stereo not drawn), the GI50 is > 100 µM (inactive) in experiment [1]; > 100 µM (inactive) in [2]; > 100 µM (inactive) in experiment [3]; > 95.5 µM (inactive) in experiment [4]; > 100 µM (inactive) in experiment [5]; > 100 µM (inactive) in experiment [6]. Besides, the GI50 was 99.1 µM (inactive) in experiment [7]; > 93.8 µM (inactive) in experiment [8]; > 100 µM (inactive) in experiment [9]; > 100 µM (inactive) in [10]; > 100 µM (inactive) in experiment [11]; > 100 µM (inactive) in experiment [12]. The GI50 in experiment [13] was > 100 µM (inactive); in experiment [14], > 100 µM (inactive); in [15], > 100 µM (inactive); in [16], > 94.2 µM (inactive); in [17] it was > 100 µM (inactive).

Take `Cc1ccc(NCCN(C)C)c2c(=O)c3cc(O)ccc3sc12`: the GI50 in experiment [1] was 0.0454 µM (active); in experiment [2], 6.79 µM (inactive); in experiment [3] it was 2.57 µM (inactive); in experiment [18], 1.53 µM (inactive); in [19] it was 0.933 µM (active); in [20], 1.87 µM (inactive). Besides, the GI50 in experiment [4] was 20.5 µM (inactive); in experiment [5], 0.214 µM (active); in experiment [6], 1.94 µM (inactive); in experiment [7] it was 1.05 µM (active); in experiment [8], 1.31 µM (inactive); in experiment [9], 2.49 µM (inactive). The GI50 in experiment [10] is 0.416 µM (active); in experiment [11] it was 2.38 µM (inactive); in experiment [12], 17.6 µM (inactive); in experiment [13], 5.27 µM (inactive); in experiment [14] it was 4.88 µM (inactive); in [15], 4.48 µM (inactive). Further, the GI50 was 7.21 µM (inactive) in experiment [16] and 1.05 µM (active) in experiment [17].

As for `CCCCCn1cnc2c1S(=O)(=O)N(C)C(NC(=O)c1ccccc1)=N2`, the GI50 in [1], in [2], in experiment [3], in [4], in [5] and in experiment [6] was > 100 µM (inactive) each time. Also, the GI50 in experiment [7], in experiment [8], in experiment [9], in [10], in [11] and in [12] was > 100 µM (inactive) in each case. For the same compound, the GI50 in [13], in experiment [15], in experiment [16] and in experiment [17] was > 100 µM (inactive) throughout.

For `CC(=O)c1cccc(NC(=O)C(=O)NNc2nnc(S)n2N)c1`, the GI50 is 3.6 µM (inactive) in [1]; 20.4 µM (inactive) in [2]; 13.6 µM (inactive) in [3]; 2 µM (inactive) in [19]; 3.06 µM (inactive) in experiment [4]; 3.75 µM (inactive) in experiment [5]. Also, the GI50 was 11.3 µM (inactive) in [6]; 1.64 µM (inactive) in [7]; 17.3 µM (inactive) in experiment [8]; 9.4 µM (inactive) in [9]; 3.18 µM (inactive) in experiment [10]; 13.9 µM (inactive) in experiment [11]. Further, the GI50 in experiment [12] was 25.9 µM (inactive); in [13], 4.14 µM (inactive); in [14], 1.89 µM (inactive); in experiment [15], 12.2 µM (inactive); in experiment [16] it was 10.1 µM (inactive); in experiment [17], 5.55 µM (inactive).

As to `CCOC(OC1=C(C#N)CCC1)C(CC)[Se]c1ccccc1` (stereo not drawn), the GI50 is 16.8 µM (inactive) in experiment [1]; 80.4 µM (inactive) in [2]; 17.9 µM (inactive) in [3]; 20.9 µM (inactive) in [4]; 63.1 µM (inactive) in experiment [5]; 15 µM (inactive) in experiment [6]. Further, the GI50 in [7] was 4.5 µM (inactive); in experiment [8] it was 41 µM (inactive); in experiment [9], 26.4 µM (inactive); in experiment [10], 12.4 µM (inactive); in experiment [11], 23.4 µM (inactive); in [12] it was > 100 µM (inactive). Besides, the GI50 in [13] was 16.6 µM (inactive); in experiment [14], 15.2 µM (inactive); in experiment [15] it was 19.2 µM (inactive); in experiment [16], 16.1 µM (inactive); in experiment [17], 11.2 µM (inactive).
